One substance from patent US20250145715A1, “B7-H3 TARGETING FUSION PROTEINS AND METHODS OF USE THEREOF” (GT Biopharma, Inc., priority 2021, published 2025) can be followed below.

Test [1] deals with PC3 prostate cancer cells. In words: NK cell CD107a / IFNγ flow cytometry against PC3. In kind it is cell-based, human. The conditions noted are these: normal donor and prostate cancer patient NK cells, vs controls. The text has this: FIG. 15A is a graph showing pooled analysis of proportion of NK cells from healthy donors or prostate cancer patients expressing CD107a+ (top) or IFNγ (bottom) against C4-2 targets (N=9 for healthy donors, N=3 for patients). FIG. 15B is a graph showing pooled analysis of proportion of NK cells from healthy donors or prostate cancer patients expressing CD107a+ (top) or IFNγ (bottom) against DU145 targets (N=9 for healthy donors, N=3 for patients). FIG. 15C is a graph showing pooled analysis of proportion of NK cells from healthy donors or prostate cancer patients expressing CD107a+ (top) or IFNγ (bottom) against LNCaP targets (N=9 for healthy donors, N=3 for patients). FIG. 15D is a graph showing pooled analysis of proportion of NK cells from healthy donors or prostate cancer patients expressing CD107a+ (top) or IFNγ (bottom) against PC3 targets (N=9 for healthy donors, N=3 for patients). * p<0.05, ** p<0.01, *** p<0.001, and **** p<0.0001.
ADCC was measured in a flow cytometry assay by evaluating degranulation via CD107a (lysosomal-associated membrane protein LAMP-1) and intracellular IFNγ production. Upon thawing, normal donor and patient-derived PBMCs or ascites cells were rested overnight (37° C., 5% CO2) in RPMI 1640 media supplemented with 10% fetal calf serum (RPMI-10). […] Samples were washed and evaluated in an LSRII flow cytometer (BD Biosciences, San Jose, CA, USA). […]

For test [2], the system named is MA-148 ovarian cancer cells. Kind of test: NK cell CD107a / IFNγ flow cytometry against MA-148. In kind it is cell-based, human. The conditions noted are these: vs controls. Here is the method:
FIG. 29A is a graph illustrating pooled proportion of NK cells from healthy donors expressing CD107a+ (degranulation) against OVCAR8 and MA148 targets. FIG. 29B is a graph illustrating pooled proportion of NK cells from healthy donors expressing IFNγ cytokine production against OVCAR8 and MA148 targets.
Healthy donor or ovarian cancer PBMC cells were incubated with ovarian tumor targets at 2:1 E:T ratio for 4 hrs with 30 nM TriKE or control condition. FIG. 30A is a graph illustrating pooled proportion of NK cells from healthy donors expressing CD107a+ (degranulation) against OVCAR8 targets (N=8). […] FIG. 30I is a graph illustrating that tumor killing was evaluated using IncuCyte imaging assay. […] The percentage of Live (Nuclight Red+Caspase 3/7−) tumor cells was quantified over a 48-h period and normalized to tumor alone. Readings were obtained every 15 min (representative of four separate experiments). * p<0.05, ** p<0.01, *** p<0.001, and **** p<0.0001.
ADCC was measured in a flow cytometry assay by evaluating degranulation via CD107a (lysosomal-associated membrane protein LAMP-1) and intracellular IFNγ production. […] Samples were washed and evaluated in an LSRII flow cytometer (BD Biosciences, San Jose, CA, USA).
The ability of cam1615B7-H3 TriKE to mediate NK cell activity against ovarian cancer cells was evaluated. […]

Take “cam1615B7-H3: second-generation TriKE: humanized camelid anti-CD16 VHH, human wild-type IL-15, anti-B7-H3 mAb 376.96 scFv; SEQ ID NO:1”: in test [1], the “NK cell IFNγ production against PC3” value is recorded as “enhanced” and the “NK cell degranulation (CD107a) against PC3” value is on record as “enhanced”. Further, the “NK cell activity against MA-148” value in test [2] (normal donor NK cells) is on record as “robust activity”. Further, the “NK cell degranulation against MA-148” value in test [2] (ovarian-cancer-derived ascites samples) was “significantly enhanced NK cell degranulation”.
